Several values for one entry are separate records, joined by “and”; a condition that tells them apart may be missing. Identical values can stand only once. Inconclusive results and toxic doses are left out. Rule for the calls: active = survival T/C of 150% or more; inactive = T/C below 125% in these data.
System: P388 leukemia ip, CD2F1 mice, survival T/C
Experiment: NCI In Vivo Anticancer Drug Screen. Data for tumor model P388 Leukemia (intraperitoneal) in CD2F1 (CDF1) mice
Settings: endpoint: median survival time, higher = longer survival
Procedure, shortened: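 Mice carrying the transplanted tumor received test compound or vehicle. Survival was recorded in each group, and the value is the treated-group measurement divided by that of the vehicle-treated control group.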

[1] = dose: 100.0 mg/kg/injection, schedule: Q01DX009 (ip), vehicle: saline with Tween-80
[2] = dose: 200.0 mg/kg/injection, schedule: Q01DX009 (ip), vehicle: saline with Tween-80
[3] = dose: 400.0 mg/kg/injection, schedule: Q01DX009 (ip), vehicle: saline with Tween-80
[4] = dose: 50.0 mg/kg/injection, schedule: Q01DX005 (ip), vehicle: saline with Tween-80
[5] = dose: 100.0 mg/kg/injection, schedule: Q01DX005 (ip), vehicle: saline with Tween-80
[6] = dose: 60.0 mg/kg/injection, schedule: Q01DX005 (ip), vehicle: Klucel (hydroxypropylcellulose) (HPC)
[7] = dose: 120.0 mg/kg/injection, schedule: Q01DX005 (ip), vehicle: Klucel (hydroxypropylcellulose) (HPC)
[8] = dose: 100.0 mg/kg/injection, schedule: Q04DX003 (ip), vehicle: saline with Tween-80
[9] = dose: 200.0 mg/kg/injection, schedule: Q04DX003 (ip), vehicle: saline with Tween-80
[10] = dose: 400.0 mg/kg/injection, schedule: Q04DX003 (ip), vehicle: saline with Tween-80
[11] = dose: 50.0 mg/kg/injection, schedule: Q01DX005 (ip), vehicle: Klucel (hydroxypropylcellulose) (HPC)
[12] = dose: 100.0 mg/kg/injection, schedule: Q01DX005 (ip), vehicle: Klucel (hydroxypropylcellulose) (HPC)
[13] = dose: 200.0 mg/kg/injection, schedule: Q01DX005 (ip), vehicle: Klucel (hydroxypropylcellulose) (HPC)
[14] = dose: 50.0 mg/kg/injection, schedule: Q04DX003 (ip), vehicle: saline with Tween-80
[15] = dose: 120.0 mg/kg/injection, schedule: Q01DX005 (ip), vehicle: saline with Tween-80
[16] = dose: 50.0 mg/kg/injection, schedule: Q01DX009 (ip), vehicle: saline
[17] = dose: 100.0 mg/kg/injection, schedule: Q01DX009 (ip), vehicle: saline
[18] = dose: 200.0 mg/kg/injection, schedule: Q01DX009 (ip), vehicle: saline
[19] = dose: 200.0 mg/kg/injection, schedule: Q01DX005 (ip), vehicle: saline with Tween-80

Measured: T/C

COc1cc2c(cc1OC)-c1c(C)c3ccc(OC)c(NCCN)c3c[n+]1CC2
inactive: dose: 6.25 mg/kg/injection, schedule: Q04DX003 (ip), vehicle: water 110 % of control | dose: 12.5 mg/kg/injection, schedule: Q04DX003 (ip), vehicle: water 91 % of control | dose: 25.0 mg/kg/injection, schedule: Q04DX003 (ip), vehicle: water 101 % of control

NC(C=O)C(O)C(O)C(O)CO (stereo not given)
inactive: [1] 109 % of control | dose: 100.0 mg/kg/injection, schedule: Q04DX003 (ip), vehicle: saline sonified 100 % of control | [2] 95 % of control | dose: 200.0 mg/kg/injection, schedule: Q04DX003 (ip), vehicle: saline sonified 100 % of control | [3] 95 % of control | dose: 400.0 mg/kg/injection, schedule: Q04DX003 (ip), vehicle: saline sonified 90 % of control

Cc1cccc2sc(NC(=O)Nc3cccc(F)c3)nc12
inactive: dose: 12.5 mg/kg/injection, schedule: Q01DX005 (ip), vehicle: saline with Tween-80 93 % of control and 94 % of control | dose: 25.0 mg/kg/injection, schedule: Q01DX005 (ip), vehicle: saline with Tween-80 100 % of control and 96 % of control | [4] 94 % of control and 96 % of control | [5] 104 % of control and 89 % of control

CCC1(N(C)C)C(=O)NC(=O)N(C)C1=O (stereo not given)
inactive: [6] 103 % of control | [7] 101 % of control | dose: 2400.0 mg/kg/injection, schedule: Q01DX005 (ip), vehicle: Klucel (hydroxypropylcellulose) (HPC) 104 % of control

C/C(CC(O)(c1ccccc1)c1ccccc1)=N\SC(c1ccccc1)(c1ccccc1)c1ccccc1
inactive: dose: 100.0 mg/kg/injection, schedule: Q01DX001 (ip), vehicle: saline with Tween-80 106 % of control | dose: 200.0 mg/kg/injection, schedule: Q01DX001 (ip), vehicle: saline with Tween-80 100 % of control | dose: 400.0 mg/kg/injection, schedule: Q01DX001 (ip), vehicle: saline with Tween-80 98 % of control

CN(C)c1ccc(N=Nc2ccccc2)cc1
inactive: dose: 31.25 mg/kg/injection, schedule: Q01DX009 (ip), vehicle: saline with Tween-80 100 % of control | dose: 62.5 mg/kg/injection, schedule: Q01DX009 (ip), vehicle: saline with Tween-80 109 % of control

C=C(C)C1CC=C(C)CC1 (stereo not given)
inactive: [1] 95 % of control | [8] 100 % of control | [2] 104 % of control | [9] 104 % of control | [3] 114 % of control | [10] 109 % of control

COC(=O)n1c(=O)oc2ccc(Br)cc21
inactive: [11] 104 % of control | [12] 106 % of control | [13] 102 % of control

NC=NC(CCC(=O)O)C(=O)O (stereo not given)
inactive: dose: 50.0 mg/kg/injection, schedule: Q01DX005 (ip), vehicle: saline 106 % of control and 92 % of control | dose: 100.0 mg/kg/injection, schedule: Q01DX005 (ip), vehicle: saline 99 % of control

CN(C)C(=S)N1C(=O)C2C3CCC(O3)C2C1=O (stereo not given)
inactive: dose: 1.87 mg/kg/injection, schedule: Q01DX005 (ip), vehicle: saline with Tween-80 102 % of control | dose: 3.75 mg/kg/injection, schedule: Q01DX005 (ip), vehicle: saline with Tween-80 100 % of control | dose: 7.5 mg/kg/injection, schedule: Q01DX005 (ip), vehicle: saline with Tween-80 99 % of control and 98 % of control

CCCCc1ccc(Sc2cccc3c2C(=O)c2c(Sc4ccc(CCCC)cc4)cccc2C3=O)cc1
inactive: [8] 95 % of control | [9] 90 % of control | [10] 86 % of control

O=C1CC[C@@H]2CCCC[C@@H]2C1
inactive: dose: 12.5 mg/kg/injection, schedule: Q01DX009 (ip), vehicle: saline sonified 104 % of control | dose: 25.0 mg/kg/injection, schedule: Q01DX009 (ip), vehicle: saline sonified 118 % of control | dose: 50.0 mg/kg/injection, schedule: Q01DX009 (ip), vehicle: saline sonified 100 % of control

NC(Cc1cccc(F)c1)c1nn[nH]n1 (stereo not given)
inactive: [14] 100 % of control | [8] 93 % of control

CC1(C)CCSC(/C=C/c2ccccc2)=N1
inactive: dose: 100.0 mg/kg/injection, schedule: Q01DX009 (ip), vehicle: other 109 % of control | dose: 200.0 mg/kg/injection, schedule: Q01DX009 (ip), vehicle: other 115 % of control | dose: 400.0 mg/kg/injection, schedule: Q01DX009 (ip), vehicle: other 108 % of control

OCc1sccc1-n1cccc1
inactive: dose: 60.0 mg/kg/injection, schedule: Q01DX005 (ip), vehicle: saline with Tween-80 104 % of control | [15] 104 % of control | dose: 240.0 mg/kg/injection, schedule: Q01DX005 (ip), vehicle: saline with Tween-80 104 % of control

FC(F)(F)c1cc(NC(=S)SC2CCCCC2)ccc1Cl
inactive: dose: 25.0 mg/kg/injection, schedule: Q01DX009 (ip), vehicle: saline 103 % of control | [16] 100 % of control and 110 % of control | [17] 107 % of control and 118 % of control | [18] 121 % of control

Cc1ccccc1-[n+]1nc(-c2ccccc2)nn1-c1ccccc1
inactive: dose: 0.31 mg/kg/injection, schedule: Q01DX009 (ip), vehicle: saline with Tween-80 95 % of control | dose: 0.63 mg/kg/injection, schedule: Q01DX009 (ip), vehicle: saline with Tween-80 104 % of control | dose: 1.25 mg/kg/injection, schedule: Q01DX009 (ip), vehicle: saline with Tween-80 95 % of control

Cc1cc(C)n(P2(n3nc(C)cc3C)=NP(n3nc(C)cc3C)(n3nc(C)cc3C)=NP(n3nc(C)cc3C)(n3nc(C)cc3C)=N2)n1
inactive: [4] 98 % of control | [5] 98 % of control | [19] 99 % of control

CC1=NN(C(=O)c2ccc(Cl)cc2)C(=O)C1N=Nc1ccc(S(=O)(=O)Nc2ncccn2)cc1 (stereo not given)
inactive: [4] 94 % of control | [5] 97 % of control | [19] 87 % of control

Cc1noc(N(C)C)c1C
inactive: [16] 102 % of control | [17] 100 % of control | [18] 108 % of control

Cc1c2c(cc3c4ccccc4n(C)c13)C(=O)OC2=O
inactive: dose: 0.78 mg/kg/injection, schedule: Q01DX005 (ip), vehicle: Klucel (hydroxypropylcellulose) (HPC) 99 % of control | dose: 1.56 mg/kg/injection, schedule: Q01DX005 (ip), vehicle: Klucel (hydroxypropylcellulose) (HPC) 93 % of control | dose: 3.12 mg/kg/injection, schedule: Q01DX005 (ip), vehicle: Klucel (hydroxypropylcellulose) (HPC) 89 % of control | dose: 6.25 mg/kg/injection, schedule: Q01DX005 (ip), vehicle: Klucel (hydroxypropylcellulose) (HPC) 89 % of control | [11] 89 % of control | [12] 88 % of control | [13] 97 % of control

COc1ccc(N/C=C2\C(=O)CCc3c2oc2cc(Cl)c(O)c(Cl)c32)cc1
inactive: dose: 15.0 mg/kg/injection, schedule: Q01DX005 (ip), vehicle: Klucel (hydroxypropylcellulose) (HPC) 93 % of control | dose: 30.0 mg/kg/injection, schedule: Q01DX005 (ip), vehicle: Klucel (hydroxypropylcellulose) (HPC) 99 % of control | [6] 107 % of control and 93 % of control | [7] 102 % of control

COc1ccc2c(c1OC)C(=O)O/C2=C/c1c(CCN(C)C)cc2c(c1O)OCO2
inactive: dose: 53.0 micrograms/kg/injection, schedule: Q01DX005 (ip), vehicle: Klucel (hydroxypropylcellulose) (HPC) 104 % of control | dose: 105.0 micrograms/kg/injection, schedule: Q01DX005 (ip), vehicle: Klucel (hydroxypropylcellulose) (HPC) 91 % of control | dose: 210.0 micrograms/kg/injection, schedule: Q01DX005 (ip), vehicle: Klucel (hydroxypropylcellulose) (HPC) 96 % of control | dose: 420.0 micrograms/kg/injection, schedule: Q01DX005 (ip), vehicle: Klucel (hydroxypropylcellulose) (HPC) 102 % of control

CNC(C)C(O)c1ccccc1 (stereo not given)
inactive: [14] 95 % of control | [8] 95 % of control | [9] 100 % of control

O=c1[nH]cnc2nc(N3CCOCC3)sc12
inactive: [4] 93 % of control | [15] 96 % of control | [19] 95 % of control

COc1ccc([I+]c2ccccc2)cc1
inactive: dose: 1.5 mg/kg/injection, schedule: Q01DX009 (ip), vehicle: saline 109 % of control | dose: 2.5 mg/kg/injection, schedule: Q01DX009 (ip), vehicle: saline sonified 100 % of control | dose: 3.0 mg/kg/injection, schedule: Q01DX009 (ip), vehicle: saline 109 % of control | dose: 6.0 mg/kg/injection, schedule: Q01DX009 (ip), vehicle: saline 122 % of control

Reference: PubChem BioAssay AID330 (DTP/NCI, 2004)
